Read-outs that look alike come from different tables or passages of the source.
Target: T1, BRD9 (Homo sapiens, UniProt Q9H8M2)
T1 sequence (Q9H8M2 1-597): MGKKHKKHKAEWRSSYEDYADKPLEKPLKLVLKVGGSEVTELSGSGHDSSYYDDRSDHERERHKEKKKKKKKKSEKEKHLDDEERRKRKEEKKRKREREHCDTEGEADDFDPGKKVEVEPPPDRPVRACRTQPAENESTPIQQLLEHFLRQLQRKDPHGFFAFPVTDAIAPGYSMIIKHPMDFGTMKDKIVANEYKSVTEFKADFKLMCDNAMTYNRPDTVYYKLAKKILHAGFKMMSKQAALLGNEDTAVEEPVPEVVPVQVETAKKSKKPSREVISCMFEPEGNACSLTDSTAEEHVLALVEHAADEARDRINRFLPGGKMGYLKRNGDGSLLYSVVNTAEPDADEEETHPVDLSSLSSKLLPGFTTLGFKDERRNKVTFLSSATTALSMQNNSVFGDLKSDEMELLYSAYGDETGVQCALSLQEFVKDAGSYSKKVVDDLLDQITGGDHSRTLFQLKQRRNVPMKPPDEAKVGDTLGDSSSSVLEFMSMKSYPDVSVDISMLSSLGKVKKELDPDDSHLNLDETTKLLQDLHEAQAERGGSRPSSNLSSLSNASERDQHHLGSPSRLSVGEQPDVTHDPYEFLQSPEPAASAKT
Assay: Degradation of BRD9 (IF), immunofluorescence in MV4-11 cells, 24 hours (Assay Protocol 2)
Type: cell-based
Set-up: A suspension of MV4-11 cells (ATCC CRL-9591) was prepared; host or cells: MV4-11
Conditions: BRD9 degradation; for DC50: read-out: DC50
Method in brief: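 % BRD9 remaining, scaled between DMSO (high) and 100 nM CFT-8634 (low) control wells, derives from mean Alexa 647 contrast in central nuclei by high-content imaging. MV4-11 cells had 24 h compound exposure at 37° C. before PFA fixation, Triton permeabilisation and anti-BRD9 E4Q3F immunostaining.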

[1] = MV4-11, Assay protocol 2, read-out: Dmax

SMILES | DC50 (Assay protocol 2) | Dmax [1] | Dmax (Assay protocol 2)
COc1cc(-c2cn(C)c(=O)c(C)c2C)cc(OC)c1CN1CCN(Cc2cccc3c2CCN(C(=O)/C(C#N)=C/C2(C)CCCC2)C3C)C2(CC2)C1 (mixture of isomers) [Compound B145, (E/Z)-2-(5-((7-(2,6-dimethoxy-4-(1,4,5-trimethyl-6-oxo-1,6-dihydropyridin-3-yl)benzyl)-4,7-diazaspiro[2.5]octan-4-yl)methyl)-1-methyl-1,2,3,4-tetrahydroisoquinoline-2-carbonyl)-3-(1-methylcyclopentyl)acrylonitrile] | < 1.25 nM | > 75% | 
COc1cc(-c2cn(C)c(=O)c(C)c2C)cc(OC)c1CN1CCC2(CC1)CCN(c1cccc3c1CCN(C(=O)/C(C#N)=C/C(C)(C)C)C3C)C2 (centres unmarked) [Compound B63, (E2Z)-2-(5-(8-(2,6-dimethoxy-4-(1,4,5-trimethyl-6-oxo-1,6-dihydropyridin-3-yl)benzyl)-2,8-diazaspiro[4.5]decan-2-yl)-1-methyl-1,2,3,4-tetrahydroisoquinoline-2-carbonyl)-4,4-dimethylpent-2-enenitrile] | 1.25 to 10 nM | 40 to 70% | 
COc1cc(-c2cn(C)c(=O)c(C)c2C)cc(OC)c1CN1CCN(Cc2cccc3c2CCN(C(=O)/C(C#N)=C/c2cnc(C)cn2)C3C)CC1 (mixture of isomers) [Compound B89, (E/Z)-2-(5-((4-(2,6-dimethoxy-4-(1,4,5-trimethyl-6-oxo-1,6-dihydropyridin-3-yl)benzyl)piperazin-1-yl)methyl)-1-methyl-1,2,3,4-tetrahydroisoquinoline-2-carbonyl)-3-(5-methylpyrazin-2-yl)acrylonitrile] | < 1.25 nM | > 75% | 
COc1cc(-c2cn(C)c(=O)c(C)c2C)cc(OC)c1CN1CCN(Cc2cccc3c2CCN(C(=O)/C(C#N)=C/C2(C)CCOCC2)[C@@H]3C)C2(CC2)C1 (single isomer, unassigned) [Compound B193, (E/Z)-2-(5-((7-(2,6-dimethoxy-4-(1,4,5-trimethyl-6-oxo-1,6-dihydropyridin-3-yl)benzyl)-4,7-diazaspiro[2.5]octan-4-yl)methyl)-1-methyl-1,2,3,4-tetrahydroisoquinoline-2-carbonyl)-3-(4-methyltetrahydro-2H-pyran-4-yl)acrylonitrile] | < 1.25 nM | > 75% | 
COc1cc(-c2cn(C)c(=O)c(C)c2C)cc(OC)c1CN1CCN(Cc2cccc3c2CCN(C(=O)/C(C#N)=C/C2(C)CCOCC2)[C@H]3C)C2(CC2)C1 (single isomer, unassigned) [Compound B194, (E/Z)-2-(5-((7-(2,6-dimethoxy-4-(1,4,5-trimethyl-6-oxo-1,6-dihydropyridin-3-yl)benzyl)-4,7-diazaspiro[2.5]octan-4-yl)methyl)-1-methyl-1,2,3,4-tetrahydroisoquinoline-2-carbonyl)-3-(4-methyltetrahydro-2H-pyran-4-yl)acrylonitrile] | 1.25 to 10 nM | 40 to 70% | 
COc1cc(-c2cn(C)c(=O)c3[nH]ncc23)cc(OC)c1CN1CCN(Cc2cccc3c2CCN(C(=O)/C(C#N)=C/c2cccc(Br)n2)C3C)CC1 (mixture of isomers) [Compound B96, (E/Z)-3-(6-bromopyridin-2-yl)-2-(5-((4-(2,6-dimethoxy-4-(6-methyl-7-oxo-6,7-dihydro-1H-pyrazolo[3,4-c]pyridin-4-yl)benzyl)piperazin-1-yl)methyl)-1-methyl-1,2,3,4-tetrahydroisoquinoline-2-carbonyl)acrylonitrile] | 1.25 to 10 nM | 40 to 70% | 
COc1cc(-c2cn(C)c(=O)c3ccsc23)cc(OC)c1CN1CCN(Cc2cccc3c2CCN(C(=O)/C(C#N)=C/C(C)(C)C)C3C)C2(CC2)C1 (mixture of isomers) [Compound B107, (E/Z)-2-(5-((7-(2,6-dimethoxy-4-(5-methyl-4-oxo-4,5-dihydrothieno[3,2-c]pyridin-7-yl)benzyl)-4,7-diazaspiro[2.5]octan-4-yl)methyl)-1-methyl-1,2,3,4-tetrahydroisoquinoline-2-carbonyl)-4,4-dimethylpent-2-enenitrile] | < 1.25 nM | > 75% | 
COc1cc(-c2cn(C)c(=O)c(C)c2C)cc(OC)c1CN1CCN(Cc2cccc3c2CCN(C(=O)/C(C#N)=C/C(C)(C)C)[C@H]3C)C2(CC2)C1 (single isomer, unassigned) [Compound B146, (E/Z)-2-(5-((7-(2,6-dimethoxy-4-(1,4,5-trimethyl-6-oxo-1,6-dihydropyridin-3-yl)benzyl)-4,7-diazaspiro[2.5]octan-4-yl)methyl)-1-methyl-1,2,3,4-tetrahydroisoquinoline-2-carbonyl)-4,4-dimethylpent-2-enenitrile] | < 1.25 nM | > 75% | 
COc1cc(-c2cn(C)c(=O)c(C)c2C)cc(OC)c1CN1CCN(Cc2cccc3c2CCN(C(=O)/C(C#N)=C/C2(C(F)(F)F)CCC2)C3C)C2(CC2)C1 (mixture of isomers) [Compound B160, (E/Z)-2-[5-[[7-[[2,6-dimethoxy-4-(1,4,5-trimethyl-6-oxo-3-pyridyl)phenyl]methyl]-4,7-diazaspiro[2.5]octan-4-yl]methyl]-1-methyl-3,4-dihydro-1H-isoquinoline-2-carbonyl]-3-[1-(trifluoromethyl)cyclobutyl]prop-2-enenitrile] | 1.25 to 10 nM | > 75% | 
COc1cc(-c2cn(C)c(=O)c(C)c2C)cc(OC)c1CN1CCN(Cc2cccc3c2CCN(C(=O)/C(C#N)=C/C2CCOC2)C3C)C2(CC2)C1 (mixture of isomers) [Compound B173, (E/Z)-2-(5-((7-(2,6-dimethoxy-4-(1,4,5-trimethyl-6-oxo-1,6-dihydropyridin-3-yl)benzyl)-4,7-diazaspiro[2.5]octan-4-yl)methyl)-1-methyl-1,2,3,4-tetrahydroisoquinoline-2-carbonyl)-3-(tetrahydrofuran-3-yl)acrylonitril] | < 1.25 nM |  | +++ (+++ = ≥75%)

More lines, now with the values ahead:

DC50 (Assay protocol 2) | Dmax [1] | Dmax (Assay protocol 2) | SMILES
1.25 to 10 nM | 40 to 70% |  | COc1cc(-c2cn(C)c(=O)c(C)c2C)cc(OC)c1CN1CCC(Cc2cccc3c2CCN(C(=O)/C(C#N)=C/C(C)(C)C)[C@H]3C)CC1 (single isomer, unassigned) [Compound C59, (E/Z)-2-(5-((1-(2,6-dimethoxy-4-(1,4,5-trimethyl-6-oxo-1,6-dihydropyridin-3-yl)benzyl)piperidin-4-yl)methyl)-1-methyl-1,2,3,4-tetrahydroisoquinoline-2-carbonyl)-4,4-dimethylpent-2-enenitrile]
1.25 to 10 nM | 70 to 75% |  | COc1cc(-c2cn(C)c(=O)c(C)c2C)cc(OC)c1CN1CCN(Cc2cccc3c2CCN(C(=O)/C(C#N)=C/c2cccc(Br)n2)C3C(C)C)CC1 (mixture of isomers) [Compound C21, (E/Z)-3-(6-bromopyridin-2-yl)-2-(5-((4-(2,6-dimethoxy-4-(1,4,5-trimethyl-6-oxo-1,6-dihydropyridin-3-yl)benzyl)piperazin-1-yl)methyl)-1-isopropyl-1,2,3,4-tetrahydroisoquinoline-2-carbonyl)acrylonitrile]
25 to 1000 nM | 40 to 70% |  | COc1cc(-c2cn(C)c(=O)c(C)c2C)cc(OC)c1CN1CCN(Cc2cccc3c2CCN(C(=O)/C(C#N)=C/C(C)(C)F)[C@H]3C)C2(CC2)C1 (mixture of isomers) [Compound C30]
25 to 1000 nM | 40 to 70% |  | COc1cc(-c2cn(C)c(=O)c(C)c2C)cc(OC)c1CN1CCN(Cc2ccc3c(c2)[C@@H](C(C)C)N(C(=O)/C(C#N)=C/C(C)(C)C)CC3)C2(CC2)C1 (single isomer, unassigned) [Compound C88, (E/Z)-2-(7-((7-(2,6-dimethoxy-4-(1,4,5-trimethyl-6-oxo-1,6-dihydropyridin-3-yl)benzyl)-4,7-diazaspiro[2.5]octan-4-yl)methyl)-1-isopropyl-1,2,3,4-tetrahydroisoquinoline-2-carbonyl)-4,4-dimethylpent-2-enenitrile]
1.25 to 10 nM | > 75% |  | COc1cc(-c2cn(C)c(=O)c(C)c2C)cc(OC)c1CN1CCN(Cc2cccc3c2CCN(C(=O)/C(C#N)=C/C(C)(C)C)[C@H]3C)CC12CC2 (single isomer, unassigned) [Compound C4, (E/Z)-2-(5-((4-(2,6-dimethoxy-4-(1,4,5-trimethyl-6-oxo-1,6-dihydropyridin-3-yl)benzyl)-4,7-diazaspiro[2.5]octan-7-yl)methyl)-1-methyl-1,2,3,4-tetrahydroisoquinoline-2-carbonyl)-4,4-dimethylpent-2-enenitrile]
< 1.25 nM | > 75% |  | CCC1c2cccc(CN3CCN(Cc4c(OC)cc(-c5cn(C)c(=O)c(C)c5C)cc4OC)CC34CC4)c2CCN1C(=O)/C(C#N)=C/C(C)(C)C (mixture of isomers) [Compound C15, (E/Z)-2-(5-((7-(2,6-dimethoxy-4-(1,4,5-trimethyl-6-oxo-1,6-dihydropyridin-3-yl)benzyl)-4,7-diazaspiro[2.5]octan-4-yl)methyl)-1-ethyl-1,2,3,4-tetrahydroisoquinoline-2-carbonyl)-4,4-dimethylpent-2-enenitrile]

Source: patent US20260092061A1, “COMPOUNDS FOR TARGETED PROTEIN DEGRADATION” (Amphista Therapeutics Limited, priority 2022, published 2026)
